Results on 5 compounds are retold here after patent US7649002B2, “(3,5-dimethylpiperidin-1yl)(4-phenylpyrrolidin-3-yl)methanone derivatives as MCR4 agonists” (Pfizer Inc, priority 2004, dated 2010).

For data set [1], the target named is T1, human MCR4 receptor (Homo sapiens, UniProt P32245).
T1 construct: expressed in transfected cells
Description: MCR4 standard functional assay (Protocol C): cAMP AlphaScreen in HEK cells. Format: cell-based. The conditions noted are these: Table 5. The procedure: Stimulation of adenylate cyclase following receptor activation is a widely used measure of functional activity for a number of receptor systems. The functional assay to measure cyclic AMP (cAMP) utilises human embryonic kidney (HEK) cells that stably express the human melanocortin MCR1, MCR3 or MCR4 receptor. Activation of MCR1, MCR3 or MCR4 receptors stimulates adenylate cyclase, generating cAMP, which is measured using AlphaScreen™ (PerkinElmer assay kits.
The AlphaScreen™ cAMP assay kit consists of ‘donor beads’, ‘acceptor beads’, and biotinylated cAMP which links the different beads together. Excitation of this linked complex at […] in the Fusion™-α microplate analyser results in light emission between […].
(i) MCR1. MCR3 and MCR4 Standard Functional Assay Methodology [Assay Protocol A, B AND C Respectively]
Determination of activity against the human MCR1, MCR3 and MCR4 receptor subtypes was carried out for compounds according to the present invention using three immortalised human embryonic kidney (HEK) cell lines that had been biologically engineered to express the human melanocortin MCR1, MCR3 or MCR4 receptor subtypes. These cell lines were engineered using protocols akin to those outlined by Gouarderes et al (Gouarderes, C., (2002) Neuroscience, 115(2); 349-361).
Such-compound-induced activation of these MCR1, MCR3 or MCR4 receptors lead to the stimulation of the cellular enzyme adenylate cyclase, which in turn lead to the cellular generation, and intra-cellular accumulation, of cyclic adenosine monophosphate (cAMP). […] Intracellular levels of cAMP were quantified using the commercially available AlphaScreen™ assay kits from PerkinElmer. A detailed assay protocol and an explanation of the concept underlying this kit is available through the PerkinElmer website (www.perkinelmer.com). The protocol listed below provides a summary this information.
The quantity of intracellular cAMP produced by compound-induced activation of the MCR1, MCR3 and MCR4 receptors in these three cell lines was measured using a Fusion™-α microplate analyser set to stimulate at a wavelength of 680 nm and to measure the energy emitted at wave lengths between […]. Compound-induced increases in MCR1, MCR3 or MCR4 receptor activation were subsequently quantified as a decrease in the quantity of light emitted at wavelengths between […]. Data analysis was subsequently performed using a curve-fitting program and the apparent potency of the test compound (expressed as an EC50 and defined as the effective compound concentration that elicited 50% of the maximum compound-induced response) extrapolated from the fitted curve.
Stimulation buffer (as per AlphaScreen™ protocol): HBSS supplemented with 0.5 mM IBMX, 5 mM HEPES, 0.1% (w/v) BSA and 10 mM MgCl2. […]
Background: Alpha assays give light when donor and acceptor beads are brought close together.

Data set [2] deals with T1, human MCR4 receptor. As to the kind of experiment: MCR4 improved functional assay (Protocol E): CHO-K1-MC4R-CRE-β-lactamase reporter. It is filed as cell-based. The text has this:
(ii) MCR5 Standard Functional Assay Methodology and MCR4 Improved Functional Assay Methodology [Assay Protocol D and E Respectively] […] These cell lines were engineered using protocols akin to those outlined by Zaccolo et al (Zaccolo, M., (2000) Nature, 2(1); 25-29). Compound-induced activation of the MCR5 or MCR4 receptors in these two cell lines stimulated the production, and intracellular accumulation, of the enzyme β-lactamase. The quantity of β-lactamase enzyme produced was directly proportional to the degree to which the test compound activated the MCR5 or MCR4 receptors present on these cells and was quantified using the P-lactamase gene reporter analysis kit that is commercially available from Invitrogen Life Technologies. An in-depth description of this technology and assay protocols are available from the Invitrogen web site (www.invitrogen.com). The protocol listed below provides a summary of that assay methodology. The quantity of β-lactamase enzyme produced by compound-induced activation of the MCR5 or MCR4 receptors expressed in these cell lines was quantified using a LjI Biosystems Analyst™ HT 96.384 plate reader set to excite at a wave length of 405 nm, and measure the energy emitted at wave lengths of 450 nm and 530 nm. Cellular responses were quantified by dividing the measured energy emitted at a wavelength of 450 nm by the measured energy emitted at a wavelength of 530 nm. […] CCF4-AM was dissolved in 100% DMSO to give a final solution concentration of 1 mM. This solution was termed Solution A. Probenecid was dissolved in 200 mM NaOH to give a final solution concentration of 200 mM. This solution was termed Solution D. Composition of the β-lactamase assay dye solution: for 1072 μL of assay dye solution combine: 12 μL of Solution A, 60 μL of Solution B, 925 μL of Solution C and 75 μL of Solution D. […] Cells were grown in T225 vent cap flasks containing 50 ml of growth medium and maintained in a cell incubator at a temperature of 37° C. and in an environment containing 5% CO2. The composition of the growth medium for the CHO-K1-MC5R-CRE-β-lactamase was 90% v/v DMEM supplemented with; Glutamax-1, 25 mM HEPES, 10% v/v foetal calf serum (FCS), 1 mM sodium pyruvate, 0.1 mM non essential amino acids and 800 μg/ml genetic in. For the CHO-K1-MC4R-CRE-β-lactamase this growth media was further supplemented with […] Zeocin. Cells were harvested when they reached 80-90% confluency by first removing the existing growth medium and then washing with PBS that had been pre-warmed to a temperature of 37° C. This PBS was then removed and 5 ml of cell dissociation fluid added to the flask. These cells were incubated for 5 minutes in a cell incubator set at a temperature of 37° C. and in an environment containing 5% CO2 to detach the cells. When cells were detached, pre-warmed growth media was added, the cells re-suspended and mixed gently to achieve a single cell suspension by pipetting. This cell suspension was then used for experimentation, or transferred into a new T225 flask to perpetuate the cell culture. […] For each assay the cell plates were then retuned to a cell incubator maintained at a temperature of 37° C. and in an environment containing 5% CO2 overnight before performing the assay on the second assay day. […] For the MCR4 improved functional assay methodology the solution of cyclohexamide was not added. Subsequently, 10 μL of the test compound solution was transferred to the assay plate. The assay plate was then transferred to a cell incubator, set at 37° C. and in an environment containing 5% CO2, and left for 4 hours for the MCR4 improved assay methodology, or 5 hours for the MCR5 standard assay methodology. After this incubation period the plate was removed from the incubator, 10 μL of the […] assay dye solution was added to each well and then the plate returned to the cell incubator.

The target in another data set is T2, human MCR5 receptor (Homo sapiens, UniProt P33032).
T2 construct: expressed in transfected cells
Description: MCR5 standard functional assay (Protocol D): CHO-K1-MC5R-CRE-β-lactamase reporter. Format: cell-based. The conditions noted are these: Table 6; for Selectivity MCR5/MCR4: MCR4 by Protocol E; for EC50: Protocol D. The text has this:
These cell lines were engineered using protocols akin to those outlined by Zaccolo et al (Zaccolo, M., (2000) Nature, 2(1); 25-29). Compound-induced activation of the MCR5 or MCR4 receptors in these two cell lines stimulated the production, and intracellular accumulation, of the enzyme β-lactamase. The quantity of β-lactamase enzyme produced was directly proportional to the degree to which the test compound activated the MCR5 or MCR4 receptors present on these cells and was quantified using the P-lactamase gene reporter analysis kit that is commercially available from Invitrogen Life Technologies. An in-depth description of this technology and assay protocols are available from the Invitrogen web site (www.invitrogen.com). The protocol listed below provides a summary of that assay methodology. The quantity of β-lactamase enzyme produced by compound-induced activation of the MCR5 or MCR4 receptors expressed in these cell lines was quantified using a LjI Biosystems Analyst™ HT 96.384 plate reader set to excite at a wave length of 405 nm, and measure the energy emitted at wave lengths of 450 nm and 530 nm. Cellular responses were quantified by dividing the measured energy emitted at a wavelength of 450 nm by the measured energy emitted at a wavelength of 530 nm. […] CCF4-AM was dissolved in 100% DMSO to give a final solution concentration of 1 mM. This solution was termed Solution A. Probenecid was dissolved in 200 mM NaOH to give a final solution concentration of 200 mM. This solution was termed Solution D. Composition of the β-lactamase assay dye solution: for 1072 μL of assay dye solution combine: 12 μL of Solution A, 60 μL of Solution B, 925 μL of Solution C and 75 μL of Solution D. […] Cells were grown in T225 vent cap flasks containing 50 ml of growth medium and maintained in a cell incubator at a temperature of 37° C. and in an environment containing 5% CO2. The composition of the growth medium for the CHO-K1-MC5R-CRE-β-lactamase was 90% v/v DMEM supplemented with; Glutamax-1, 25 mM HEPES, 10% v/v foetal calf serum (FCS), 1 mM sodium pyruvate, 0.1 mM non essential amino acids and 800 μg/ml genetic in. For the CHO-K1-MC4R-CRE-β-lactamase this growth media was further supplemented with […] Zeocin. Cells were harvested when they reached 80-90% confluency by first removing the existing growth medium and then washing with PBS that had been pre-warmed to a temperature of 37° C. This PBS was then removed and 5 ml of cell dissociation fluid added to the flask. These cells were incubated for 5 minutes in a cell incubator set at a temperature of 37° C. and in an environment containing 5% CO2 to detach the cells. When cells were detached, pre-warmed growth media was added, the cells re-suspended and mixed gently to achieve a single cell suspension by pipetting. This cell suspension was then used for experimentation, or transferred into a new T225 flask to perpetuate the cell culture. On the first day of the assay cells were harvested as described above. […] For each assay the cell plates were then retuned to a cell incubator maintained at a temperature of 37° C. and in an environment containing 5% CO2 overnight before performing the assay on the second assay day. […] For the MCR4 improved functional assay methodology the solution of cyclohexamide was not added. Subsequently, 10 μL of the test compound solution was transferred to the assay plate. […] After this incubation period the plate was removed from the incubator, 10 μL of the […] assay dye solution was added to each well and then the plate returned to the cell incubator.

For data set [3], the system named is men with psychogenic and organic ED. As to conditions: cited from earlier work.
Setting [4] is: functional potency at the MC4 receptor (EC50), Protocols C or E.

Where a name gives a salt, the structure may show the parent alone.

T2 sequence (P33032 whole entry): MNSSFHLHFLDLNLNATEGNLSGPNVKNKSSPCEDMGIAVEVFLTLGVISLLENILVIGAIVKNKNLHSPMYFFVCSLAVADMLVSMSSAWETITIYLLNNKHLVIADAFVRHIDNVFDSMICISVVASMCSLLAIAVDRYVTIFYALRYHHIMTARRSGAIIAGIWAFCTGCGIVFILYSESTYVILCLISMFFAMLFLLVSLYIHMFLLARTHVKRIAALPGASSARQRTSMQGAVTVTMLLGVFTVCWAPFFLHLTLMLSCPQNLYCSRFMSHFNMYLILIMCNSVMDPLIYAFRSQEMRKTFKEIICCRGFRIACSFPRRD
T1 sequence (P32245 whole entry): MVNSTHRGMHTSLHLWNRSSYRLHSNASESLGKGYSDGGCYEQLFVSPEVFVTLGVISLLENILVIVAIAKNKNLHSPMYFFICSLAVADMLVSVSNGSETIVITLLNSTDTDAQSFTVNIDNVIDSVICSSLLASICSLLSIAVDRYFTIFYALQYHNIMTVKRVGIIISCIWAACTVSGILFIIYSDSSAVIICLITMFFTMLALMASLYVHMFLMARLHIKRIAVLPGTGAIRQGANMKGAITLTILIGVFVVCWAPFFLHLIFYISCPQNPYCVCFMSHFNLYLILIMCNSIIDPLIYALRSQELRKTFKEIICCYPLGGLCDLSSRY

By EC50 is commonly meant the concentration giving half of the maximal effect. `Cc1ccc([C@@]2(O)[C@H](C)CN(C(=O)[C@@H]3CN(C(C)(C)C)C[C@H]3c3ccc(F)cc3F)C[C@@H]2C)cc1` [Example 4, (3R,4R,5S)-1-{[(3S,4R)-1-tert-Butyl-4-(24-difluorophenyl)pyrrolidin-3-yl]carbonyl}-3,5-dimethyl-4-(4-methylphenyl)piperidin-4-ol] displayed an EC50 at human MCR4 receptor [1] of 45 nM.

In the case of `C[C@@H]1CN(C(=O)[C@@H]2CN(C(C)(C)C)C[C@H]2c2ccc(F)cc2F)C[C@H](C)[C@@]1(O)c1ccc(F)cc1F.Cl` [Example 15, (3R,4R,5S)-1-{[(3S,4R)-1-tert-butyl-4-(2,4-difluorophenyl)pyrrolidin-3-yl]carbonyl}-4-(2,4-difluorophenyl)-3,5-dimethylpiperidin-4-ol hydrochloride], the EC50 was 6.3 nM on human MCR4 receptor [2] (MCR4 EC50 (nM), Table 6); less than 50 nM at human MCR4 receptor [2] (setting [4]); 3500 nM on human MCR5 receptor. Moreover, on human MCR5 receptor, the “Selectivity MCR5/MCR4” value was 556.

For `C[C@@H]1CN(C(=O)[C@@H]2CN(C(C)(C)C)C[C@H]2c2ccc(F)cc2F)C[C@H](C)[C@@]1(O)c1ccccn1.Cl` [Example 22, (3R,4R,5S)-1-[(3S,4R)-1-tert-Butyl-4-(2,4-difluorophenyl)pyrrolidin-3-yl]carbonyl-3,5-dimethyl-4-pyridin-2-ylpiperidin-4-ol hydrochloride], the EC50 on human MCR4 receptor [2] (Protocols C or E, read-out: functional potency at the MC4 receptor (EC50)) is less than 50 nM; at human MCR4 receptor [2] (Table 6, read-out: MCR4 EC50), 23 nM; at human MCR5 receptor it was 17800 nM. Further, at human MCR5 receptor, the “Selectivity MCR5/MCR4” value came out at 772.

As for `CCN1C[C@@H](C(=O)N2C[C@@H](C)[C@](O)(c3cccc(F)c3)[C@@H](C)C2)[C@H](c2ccc(F)cc2F)C1` [Example 53, (3R,4R,5S)-1-{[(3S,4R)-4-(2,4-difluorophenyl)-1-ethylpyrrolidin-3-yl]carbonyl}-4-(3-fluorophenyl)-3,5-dimethylpiperidin-4-ol hydrochloride], the EC50 at human MCR4 receptor [2] (setting [4]) was less than 50 nM.

Take Melanotan II: in data set [3] (13/19 doses, vs placebo P<0.01), the “doses after which increased sexual desire was reported” value is reported as 68%. In addition, the “subjects with severe nausea” value in data set [3] (dose of 0.025 mg/kg) was 12.9%. Also, the “men with penile erection” value in data set [3] (in the absence of sexual stimulation, 20 men with psychogenic and organic ED) is 17 of 20. In addition, the “mean duration of Rigiscan tip rigidity>80%” value in data set [3] (men with ED, monitored 6 hours) is 41 min.
